Measured values published in paper PMC3660597, “Investigation of Specificity Determinants in Bacterial tRNA-Guanine Transglycosylase Reveals Queuine, the Substrate of Its Eucaryotic Counterpart, as Inhibitor” (PLoS ONE, 2013).
Changes are numbered by the printed parent chain. Where two headings read alike, the source gives them in different places.

Experiments:
[1] = target: T1, Z. mobilis Tgt ("wild type" Tgt = Tgt(Tyr106Phe)) (Zymomonas mobilis, UniProt P28720, V233G/Y106F); assay: inhibition of [[…]-3H]-guanine incorporation into tRNA(Tyr); assay type: biochemical; details: read-out: K ic
T1 construct: recombinant from pET9d-ZM-Y106F in E. coli BL21(DE3)/pLysS, purified; homodimer; all variants including "wild type" carry Tyr106Phe
T1 sequence (P28720 2-386 Y106F/V233G): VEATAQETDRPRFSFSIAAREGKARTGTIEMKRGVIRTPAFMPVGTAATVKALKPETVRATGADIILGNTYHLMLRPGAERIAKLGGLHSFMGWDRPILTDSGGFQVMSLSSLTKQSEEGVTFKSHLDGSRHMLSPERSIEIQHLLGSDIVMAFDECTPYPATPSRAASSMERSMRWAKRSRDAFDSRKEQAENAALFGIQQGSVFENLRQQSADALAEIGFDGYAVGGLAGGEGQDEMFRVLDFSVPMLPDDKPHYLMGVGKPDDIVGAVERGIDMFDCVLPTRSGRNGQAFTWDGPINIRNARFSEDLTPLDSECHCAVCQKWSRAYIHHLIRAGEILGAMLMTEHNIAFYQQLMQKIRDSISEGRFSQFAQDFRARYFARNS

[2] = target: T2, Z. mobilis Tgt ("wild type" Tgt = Tgt(Tyr106Phe)) (Zymomonas mobilis, UniProt P28720, Y106F); assay: as above; assay type: biochemical; details: read-out: K ic
T2 construct: recombinant from pET9d-ZM-Y106F in E. coli BL21(DE3)/pLysS, purified; homodimer; all variants including "wild type" carry Tyr106Phe
Target sequence in this assay (P28720 2-386 Y106F): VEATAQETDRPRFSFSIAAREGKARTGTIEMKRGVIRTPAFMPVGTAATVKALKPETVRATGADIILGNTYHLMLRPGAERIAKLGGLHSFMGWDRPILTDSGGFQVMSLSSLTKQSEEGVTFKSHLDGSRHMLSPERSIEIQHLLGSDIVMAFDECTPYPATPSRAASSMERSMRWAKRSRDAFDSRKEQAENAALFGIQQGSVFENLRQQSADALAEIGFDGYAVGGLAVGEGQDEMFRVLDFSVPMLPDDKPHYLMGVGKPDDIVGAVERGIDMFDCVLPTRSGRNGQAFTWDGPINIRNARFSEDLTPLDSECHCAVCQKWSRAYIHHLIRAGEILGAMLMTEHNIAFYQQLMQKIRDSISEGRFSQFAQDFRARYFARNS

[3] = target: T2, Z. mobilis Tgt ("wild type" Tgt = Tgt(Tyr106Phe)); assay: as above; assay type: biochemical; details: read-out: K ic; remark: listed apart in the source
Target sequence in this assay (P28720 2-386 Y106F/C158V): as the sequence (P28720 2-386 Y106F) above, with C157V counted along it

[4] = target: T3, Z. mobilis Tgt ("wild type" Tgt = Tgt(Tyr106Phe)) (Zymomonas mobilis, UniProt P28720, Y106F/C158V/A232S/V233G); assay: X-ray crystal structure of complex; assay type: binding
T3 construct: recombinant from pET9d-ZM-Y106F in E. coli BL21(DE3)/pLysS, purified; homodimer; all variants including "wild type" carry Tyr106Phe
T3 sequence (P28720 2-386 Y106F/C158V/A232S/V233G): T1 sequence (P28720 2-386 Y106F/V233G) with C157V, A231S

[5] = target: T4, Z. mobilis Tgt ("wild type" Tgt = Tgt(Tyr106Phe)) (Zymomonas mobilis, UniProt P28720, C158V/V233G/Y106F); assay: inhibition of [[…]-3H]-guanine incorporation into tRNA(Tyr); assay type: biochemical; details: read-out: K ic
T4 construct: recombinant from pET9d-ZM-Y106F in E. coli BL21(DE3)/pLysS, purified; homodimer; all variants including "wild type" carry Tyr106Phe
T4 sequence (P28720 2-386 Y106F/C158V/V233G): T1 sequence (P28720 2-386 Y106F/V233G) with C157V

| Compound | Ki [1] [µM] | Ki [2] [µM] | Ki [3] [µM] | X-ray crystal structure of complex ([4]; cocrystallisation) | Ki [5] [µM] | X-ray crystal structure of complex ([4]; soaking) |
| --- | --- | --- | --- | --- | --- | --- |
| Nc1nc2[nH]cc(CN[C@H]3C=C[C@H](O)[C@@H]3O)c2c(=O)[nH]1 [queuine, 7-(((4,5-cis-dihydroxy-2-cyclopenten-1-yl)amino)methyl)-7-deazaguanine] | 3.1 ± 0.2 | 3.8 ± 0.6 | 3.8 ± 0.5 | in complex with preQ1 and in complex with queuine | 8.9 ± 1.2 |  |
| NCc1c[nH]c2nc(N)[nH]c(=O)c12 [preQ1, 7-aminomethyl-7-deazaguanine] |  |  |  |  |  | in complex with preQ1 and in complex with queuine |
